Measured values as given in ChEMBL document CHEMBL1201862, “PubChem BioAssay data set” (2004).
The source made the active and inactive calls.

Experiments:
Cytochrome P450 1A2 = biological target: T1, Cytochrome P450 1A2 (Homo sapiens, UniProt P05177);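 also: PubChem cytochrome P450 panel assay, CYP1A2 panel member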
T1 sequence (P05177 whole entry): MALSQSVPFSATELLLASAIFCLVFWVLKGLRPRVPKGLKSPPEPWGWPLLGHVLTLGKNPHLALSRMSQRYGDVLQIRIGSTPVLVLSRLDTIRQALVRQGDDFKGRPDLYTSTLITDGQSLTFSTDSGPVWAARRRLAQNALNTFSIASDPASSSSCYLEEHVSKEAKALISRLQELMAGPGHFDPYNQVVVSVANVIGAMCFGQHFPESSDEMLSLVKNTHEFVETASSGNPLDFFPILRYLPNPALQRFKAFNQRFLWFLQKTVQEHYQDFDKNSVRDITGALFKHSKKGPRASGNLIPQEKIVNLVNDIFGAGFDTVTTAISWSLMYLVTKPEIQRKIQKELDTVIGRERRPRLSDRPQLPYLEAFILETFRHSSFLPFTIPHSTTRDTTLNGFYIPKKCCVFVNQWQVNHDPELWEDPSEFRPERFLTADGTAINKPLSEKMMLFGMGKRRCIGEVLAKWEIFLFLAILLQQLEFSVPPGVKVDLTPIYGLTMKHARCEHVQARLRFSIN

Cytochrome P450 3A4 = Cytochrome P450 3A4 (Homo sapiens, UniProt P08684);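 also: CYP3A4 tested as one member of a cytochrome P450 panel screen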
Cytochrome P450 2C9 = Cytochrome P450 2C9 (Homo sapiens, UniProt P11712)
Cytochrome P450 2D6 = Cytochrome P450 2D6 (Homo sapiens, UniProt P10635);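 also: CYP2D6 member of a cytochrome P450 panel assay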
SUMO-activating enzyme [1] = biological target: T2, SUMO-activating enzyme (Homo sapiens, UniProt Q9UBT2); assay: blockers of UBC9-mediated SUMO conjugation – biochemical, AlphaScreen, SUMOylation inhibitor project, confirmation (AID 2018); assay type: functional
T2 sequence (Q9UBE0 whole entry): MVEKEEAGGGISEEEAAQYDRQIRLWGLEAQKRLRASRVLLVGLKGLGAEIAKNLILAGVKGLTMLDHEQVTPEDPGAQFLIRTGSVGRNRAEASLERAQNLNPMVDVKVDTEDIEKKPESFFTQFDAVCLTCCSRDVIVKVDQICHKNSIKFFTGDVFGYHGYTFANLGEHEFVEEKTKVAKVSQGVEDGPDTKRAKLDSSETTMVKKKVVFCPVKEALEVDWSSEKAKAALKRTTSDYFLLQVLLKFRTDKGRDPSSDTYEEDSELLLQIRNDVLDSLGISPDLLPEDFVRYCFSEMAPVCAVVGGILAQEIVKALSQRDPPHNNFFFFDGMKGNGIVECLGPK
T2 sequence (Q9UBT2 whole entry): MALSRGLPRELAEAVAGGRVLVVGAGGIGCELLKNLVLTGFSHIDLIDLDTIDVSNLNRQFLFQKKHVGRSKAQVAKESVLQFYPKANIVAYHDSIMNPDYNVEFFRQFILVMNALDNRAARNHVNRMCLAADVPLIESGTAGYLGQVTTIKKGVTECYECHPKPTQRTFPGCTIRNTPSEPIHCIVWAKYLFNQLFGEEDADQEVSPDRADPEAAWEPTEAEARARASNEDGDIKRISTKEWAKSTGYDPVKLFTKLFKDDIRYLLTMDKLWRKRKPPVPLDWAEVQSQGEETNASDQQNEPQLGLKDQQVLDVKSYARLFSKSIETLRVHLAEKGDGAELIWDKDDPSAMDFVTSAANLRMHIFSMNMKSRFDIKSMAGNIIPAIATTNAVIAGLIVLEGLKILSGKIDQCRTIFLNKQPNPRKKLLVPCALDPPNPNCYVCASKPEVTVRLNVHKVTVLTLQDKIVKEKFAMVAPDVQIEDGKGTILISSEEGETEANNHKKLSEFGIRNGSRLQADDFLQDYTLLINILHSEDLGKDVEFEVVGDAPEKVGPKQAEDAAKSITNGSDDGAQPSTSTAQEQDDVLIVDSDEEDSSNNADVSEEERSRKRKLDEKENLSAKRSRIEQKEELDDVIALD

SUMO-activating enzyme [2] = biological target: T2, SUMO-activating enzyme; assay: blockers of SAE1/SAE2–UBC9 SUMO transfer – biochemical, HTRF, uHTS, primary screen (AID 2006); assay type: protein-complex assay
[3] = biological target: Intestinal-type alkaline phosphatase (Mus musculus, UniProt P24822); assay: PubChem AID 488874; assay type: functional
Sequence of Intestinal-type alkaline phosphatase (Mus musculus, UniProt P24822) (P24822 whole entry): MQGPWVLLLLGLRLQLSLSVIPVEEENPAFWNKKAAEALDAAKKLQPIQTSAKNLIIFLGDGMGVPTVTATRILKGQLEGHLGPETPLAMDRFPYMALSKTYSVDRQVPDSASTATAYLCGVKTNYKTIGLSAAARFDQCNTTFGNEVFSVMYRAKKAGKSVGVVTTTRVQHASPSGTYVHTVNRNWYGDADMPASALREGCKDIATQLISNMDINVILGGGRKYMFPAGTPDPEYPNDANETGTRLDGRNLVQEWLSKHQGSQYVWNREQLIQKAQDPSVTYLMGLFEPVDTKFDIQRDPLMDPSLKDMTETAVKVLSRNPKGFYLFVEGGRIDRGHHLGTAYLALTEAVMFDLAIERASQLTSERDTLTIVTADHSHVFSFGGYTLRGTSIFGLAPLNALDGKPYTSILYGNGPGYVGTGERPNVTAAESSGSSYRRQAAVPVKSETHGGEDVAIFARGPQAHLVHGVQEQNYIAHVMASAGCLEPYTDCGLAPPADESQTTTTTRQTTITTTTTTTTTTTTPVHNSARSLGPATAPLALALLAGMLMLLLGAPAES

[4] = biological target: T3, Intestinal-type alkaline phosphatase (Homo sapiens, UniProt P09923); assay: inhibition of human intestinal alkaline phosphatase – biochemical, luminescent, uHTS hits, set 2, dose response (AID 488793); assay type: functional
T3 sequence (P09923 whole entry): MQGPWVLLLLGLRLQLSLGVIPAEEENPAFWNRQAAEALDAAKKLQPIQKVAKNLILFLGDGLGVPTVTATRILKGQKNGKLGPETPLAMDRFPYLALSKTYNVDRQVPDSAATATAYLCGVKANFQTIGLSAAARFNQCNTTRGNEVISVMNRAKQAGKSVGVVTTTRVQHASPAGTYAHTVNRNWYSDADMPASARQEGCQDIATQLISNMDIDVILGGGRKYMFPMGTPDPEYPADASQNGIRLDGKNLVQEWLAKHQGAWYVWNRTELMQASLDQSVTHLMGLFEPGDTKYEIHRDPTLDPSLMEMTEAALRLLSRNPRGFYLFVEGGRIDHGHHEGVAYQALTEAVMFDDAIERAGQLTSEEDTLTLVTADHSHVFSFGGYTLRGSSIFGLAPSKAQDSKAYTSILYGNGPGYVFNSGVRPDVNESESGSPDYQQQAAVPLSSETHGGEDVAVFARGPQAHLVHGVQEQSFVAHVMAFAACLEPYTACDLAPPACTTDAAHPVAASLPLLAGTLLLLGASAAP

[5] = biological target: T3, Intestinal-type alkaline phosphatase; assay: Dose Response confirmation of uHTS hits from a small molecule inhibitors of human intestinal alkaline phosphatase via a luminescent assay. [Related pubchem assays (depositor defined):AID2544, AID2574]; assay type: functional
[6] = biological target: T4, Alkaline phosphatase, tissue-nonspecific isozyme (Homo sapiens, UniProt P05186); assay: inhibition of tissue-nonspecific alkaline phosphatase – biochemical, dose response (AID 488882); assay type: functional
T4 sequence (P05186 whole entry): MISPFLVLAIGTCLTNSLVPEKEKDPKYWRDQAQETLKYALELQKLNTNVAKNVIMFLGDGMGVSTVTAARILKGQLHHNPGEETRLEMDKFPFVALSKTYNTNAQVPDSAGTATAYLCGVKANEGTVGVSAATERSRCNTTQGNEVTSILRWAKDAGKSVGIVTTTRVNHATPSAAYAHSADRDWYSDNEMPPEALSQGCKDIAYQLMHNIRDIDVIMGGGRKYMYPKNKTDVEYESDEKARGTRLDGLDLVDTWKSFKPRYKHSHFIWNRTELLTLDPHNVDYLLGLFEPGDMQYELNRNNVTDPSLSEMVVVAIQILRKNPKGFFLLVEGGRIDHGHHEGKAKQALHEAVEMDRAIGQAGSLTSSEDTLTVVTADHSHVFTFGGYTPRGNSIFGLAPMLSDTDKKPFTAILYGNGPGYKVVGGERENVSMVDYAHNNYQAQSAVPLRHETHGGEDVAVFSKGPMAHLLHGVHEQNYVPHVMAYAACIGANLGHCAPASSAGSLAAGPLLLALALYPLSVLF

[7] = biological target: Dual specificity tyrosine-phosphorylation-regulated kinase 1A (Rattus norvegicus, UniProt Q63470); assay type: biochemical, Homo sapiens
[8] = biological target: T5, Rac GTPase-activating protein 1 (Homo sapiens, UniProt Q9H0H5); assay: blockers of MgcRacGAP-driven Rac1 GTP hydrolysis – biochemical, ADP Hunter fluorescence, primary and confirmatory, confirmation (AID 624330); assay type: functional
T5 sequence (Q9H0H5 whole entry): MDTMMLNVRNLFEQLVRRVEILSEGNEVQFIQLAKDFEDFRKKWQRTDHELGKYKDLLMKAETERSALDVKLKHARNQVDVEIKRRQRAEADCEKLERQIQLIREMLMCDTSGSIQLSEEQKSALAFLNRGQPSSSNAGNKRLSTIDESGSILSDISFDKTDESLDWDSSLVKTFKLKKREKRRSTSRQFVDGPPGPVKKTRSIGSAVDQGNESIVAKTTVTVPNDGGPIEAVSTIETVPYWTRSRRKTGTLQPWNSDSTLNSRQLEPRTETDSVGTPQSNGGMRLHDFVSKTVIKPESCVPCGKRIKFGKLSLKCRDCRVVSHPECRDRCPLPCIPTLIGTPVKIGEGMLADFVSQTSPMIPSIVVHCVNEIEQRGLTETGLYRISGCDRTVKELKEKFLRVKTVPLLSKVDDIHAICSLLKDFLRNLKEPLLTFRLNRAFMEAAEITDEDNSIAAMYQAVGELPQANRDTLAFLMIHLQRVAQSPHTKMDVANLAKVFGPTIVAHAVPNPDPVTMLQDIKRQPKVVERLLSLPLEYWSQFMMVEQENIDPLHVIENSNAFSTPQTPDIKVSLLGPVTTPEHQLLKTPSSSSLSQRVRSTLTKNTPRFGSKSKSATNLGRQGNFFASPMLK

[9] = biological target: T6, Microphthalmia-associated transcription factor (Homo sapiens, UniProt O75030); assay: reducers of TRPM1 reporter luminescence, concentration series – cell-based, SK-MEL-5, cherry-picked, set 3, MITF inhibitor project, dose response (AID 493073); assay type: functional;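 also: SK-MEL-5 melanoma cells with luciferase driven by the MITF target TRPM1 promoter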
T6 sequence (O75030 whole entry): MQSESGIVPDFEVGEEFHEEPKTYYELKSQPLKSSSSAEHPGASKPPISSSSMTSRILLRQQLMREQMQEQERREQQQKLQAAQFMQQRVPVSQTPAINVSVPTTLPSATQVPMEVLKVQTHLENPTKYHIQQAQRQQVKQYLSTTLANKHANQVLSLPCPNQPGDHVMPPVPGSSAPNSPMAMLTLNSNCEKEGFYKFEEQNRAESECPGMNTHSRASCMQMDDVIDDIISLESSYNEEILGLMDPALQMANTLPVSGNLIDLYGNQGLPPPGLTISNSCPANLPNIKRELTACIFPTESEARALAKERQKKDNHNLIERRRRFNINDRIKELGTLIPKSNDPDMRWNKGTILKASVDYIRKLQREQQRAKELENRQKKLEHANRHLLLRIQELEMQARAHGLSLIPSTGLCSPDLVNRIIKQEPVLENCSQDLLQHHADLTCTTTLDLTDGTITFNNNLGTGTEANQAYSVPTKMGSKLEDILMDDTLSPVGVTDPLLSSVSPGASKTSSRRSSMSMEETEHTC

[10] = biological target: T7, Endoribonuclease toxin MazF (Escherichia coli K-12, UniProt P0AE70); assay: activation of MazEF endoribonuclease cleavage – biochemical, fluorescence, single-stranded RNA substrate, uHTS hits, dose response (AID 588481); assay type: functional
T7 sequence (P0AE70 whole entry): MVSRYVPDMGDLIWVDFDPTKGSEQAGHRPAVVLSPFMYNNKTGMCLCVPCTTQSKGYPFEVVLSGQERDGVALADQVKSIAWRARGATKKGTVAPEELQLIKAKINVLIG

[11] = biological target: T7, Endoribonuclease toxin MazF; assay: substrate-only fluorescence increase artefacts – biochemical, single-stranded RNase substrate, counter-screen for MazEF activator project, dose response (AID 588502); assay type: functional
[12] = biological target: T8, G-protein coupled receptor 35 (Homo sapiens, UniProt Q9HC97); assay: SAR analysis of Agonists of the GPR35 Receptor using an Image-Based Assay - Set 4. [Related pubchem assays (depositor defined):AID2013, AID2026]; assay type: functional
T8 sequence (Q9HC97 whole entry): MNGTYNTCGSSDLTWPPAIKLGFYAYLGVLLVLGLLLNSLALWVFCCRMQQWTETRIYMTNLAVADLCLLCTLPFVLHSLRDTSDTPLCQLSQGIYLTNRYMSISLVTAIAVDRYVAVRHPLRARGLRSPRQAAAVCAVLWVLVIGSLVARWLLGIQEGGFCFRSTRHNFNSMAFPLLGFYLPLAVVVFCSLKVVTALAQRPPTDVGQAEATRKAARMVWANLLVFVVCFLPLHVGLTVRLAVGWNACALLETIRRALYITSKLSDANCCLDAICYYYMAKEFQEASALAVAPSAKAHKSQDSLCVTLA

Cannabinoid receptor 1 [13] = biological target: T9, Cannabinoid receptor 1 (Homo sapiens, UniProt P21554); assay: SAR analysis of agonists of the Cannabinoid Receptor 1 using an Image-Based Assay - Set 4. [Related pubchem assays (depositor defined):AID2013, AID2026]; assay type: functional
T9 sequence (P21554 whole entry): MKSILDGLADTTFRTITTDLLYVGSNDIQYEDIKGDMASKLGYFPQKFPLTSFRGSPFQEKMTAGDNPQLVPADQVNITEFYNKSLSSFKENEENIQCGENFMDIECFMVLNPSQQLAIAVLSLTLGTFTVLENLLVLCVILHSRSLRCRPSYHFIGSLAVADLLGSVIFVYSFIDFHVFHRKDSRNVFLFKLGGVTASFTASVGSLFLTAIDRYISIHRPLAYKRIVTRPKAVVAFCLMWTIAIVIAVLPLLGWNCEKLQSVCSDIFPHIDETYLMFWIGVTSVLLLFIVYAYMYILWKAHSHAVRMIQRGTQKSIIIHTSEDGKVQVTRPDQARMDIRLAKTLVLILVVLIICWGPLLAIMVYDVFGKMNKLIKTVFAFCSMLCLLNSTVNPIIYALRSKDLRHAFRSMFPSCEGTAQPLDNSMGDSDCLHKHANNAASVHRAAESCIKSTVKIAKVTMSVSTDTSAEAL

[14] = biological target: T8, G-protein coupled receptor 35; assay: SAR analysis of Antagonists of the GPR35 Receptor using an Image-Based Assay - Set 6. [Related pubchem assays (depositor defined):AID2013, AID2026]; assay type: functional
Cannabinoid receptor 1 [15] = biological target: T9, Cannabinoid receptor 1; assay: SAR analysis of antagonists of the Cannabinoid Receptor 1 using an Image-Based Assay - Set 4. [Related pubchem assays (depositor defined):AID2013, AID2026]; assay type: functional
[16] = biological target: G-protein coupled receptor 55 (Homo sapiens, UniProt Q9Y2T6); assay: SAR Analysis of Selective Antagonists of GPR55 using an Image-Based Assay - Set 4. [Related pubchem assays (depositor defined):AID2013, AID2026]; assay type: functional;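 also: antagonism of response to 5 µM lysophosphatidylinositol agonist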
Sequence of G-protein coupled receptor 55 (Q9Y2T6 whole entry): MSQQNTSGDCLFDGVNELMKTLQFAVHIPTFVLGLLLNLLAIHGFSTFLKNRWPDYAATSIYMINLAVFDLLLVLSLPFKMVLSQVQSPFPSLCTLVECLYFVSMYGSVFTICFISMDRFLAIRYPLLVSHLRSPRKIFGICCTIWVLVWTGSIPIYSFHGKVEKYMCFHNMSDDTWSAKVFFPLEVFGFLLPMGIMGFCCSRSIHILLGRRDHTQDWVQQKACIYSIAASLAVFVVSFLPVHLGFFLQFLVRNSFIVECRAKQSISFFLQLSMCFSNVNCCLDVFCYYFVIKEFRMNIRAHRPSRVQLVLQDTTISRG

Cannabinoid receptor 2 [17] = biological target: T10, Cannabinoid receptor 2 (Homo sapiens, UniProt P34972); assay: SAR analysis of antagonists of the Cannabinoid Receptor 2 using an Image-Based Assay - Set 3. [Related pubchem assays (depositor defined):AID2013, AID2026]; assay type: functional
T10 sequence (P34972 whole entry): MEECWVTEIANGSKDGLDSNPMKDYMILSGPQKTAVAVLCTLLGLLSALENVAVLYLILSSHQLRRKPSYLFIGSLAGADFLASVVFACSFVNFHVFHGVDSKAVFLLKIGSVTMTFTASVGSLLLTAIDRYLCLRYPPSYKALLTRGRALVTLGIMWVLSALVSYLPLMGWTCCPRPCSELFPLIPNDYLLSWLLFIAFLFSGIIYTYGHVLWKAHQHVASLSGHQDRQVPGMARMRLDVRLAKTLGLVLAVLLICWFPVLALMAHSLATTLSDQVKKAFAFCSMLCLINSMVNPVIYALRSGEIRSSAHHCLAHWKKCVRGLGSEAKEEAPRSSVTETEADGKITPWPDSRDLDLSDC

Cannabinoid receptor 2 [18] = biological target: T10, Cannabinoid receptor 2; assay: SAR analysis of agonists of the Cannabinoid Receptor 2 using an Image-Based Assay - Set 3. [Related pubchem assays (depositor defined):AID2013, AID2026]; assay type: functional
Mu-type opioid receptor [19] = biological target: T11, Mu-type opioid receptor (Homo sapiens, UniProt P35372); assay: mu opioid receptor activators, image-based, SAR follow-up (AID 2352); assay type: functional
T11 sequence (P35372 whole entry): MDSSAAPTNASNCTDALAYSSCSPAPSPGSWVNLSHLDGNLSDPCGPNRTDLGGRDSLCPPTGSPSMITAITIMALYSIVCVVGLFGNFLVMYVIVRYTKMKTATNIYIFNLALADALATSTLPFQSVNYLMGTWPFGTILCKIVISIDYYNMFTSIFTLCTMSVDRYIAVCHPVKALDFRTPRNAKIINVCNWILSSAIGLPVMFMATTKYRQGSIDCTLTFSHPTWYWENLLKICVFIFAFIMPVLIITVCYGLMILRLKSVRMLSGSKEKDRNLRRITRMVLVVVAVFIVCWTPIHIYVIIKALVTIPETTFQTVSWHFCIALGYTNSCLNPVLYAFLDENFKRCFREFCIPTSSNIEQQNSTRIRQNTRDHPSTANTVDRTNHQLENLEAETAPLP

[20] = biological target: T12, Delta-type opioid receptor (Homo sapiens, UniProt P41143); assay: DOR agonists, SAR follow-up, image-based (AID 2370); assay type: functional
T12 sequence (P41143 whole entry): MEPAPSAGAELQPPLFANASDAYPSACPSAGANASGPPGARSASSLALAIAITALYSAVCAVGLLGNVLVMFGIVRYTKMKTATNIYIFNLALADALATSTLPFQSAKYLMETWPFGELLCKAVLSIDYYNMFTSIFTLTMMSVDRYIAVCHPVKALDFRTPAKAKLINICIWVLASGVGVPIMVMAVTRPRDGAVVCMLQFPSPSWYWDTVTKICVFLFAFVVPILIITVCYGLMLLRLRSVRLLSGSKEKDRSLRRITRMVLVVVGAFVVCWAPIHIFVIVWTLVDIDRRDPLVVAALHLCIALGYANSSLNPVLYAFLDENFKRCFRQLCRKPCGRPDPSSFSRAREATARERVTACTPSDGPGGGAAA

[21] = biological target: T13, Kappa-type opioid receptor (Homo sapiens, UniProt P41145); assay: kappa opioid receptor blockers, image-based, SAR follow-up (AID 2348); assay type: functional
T13 sequence (P41145 whole entry): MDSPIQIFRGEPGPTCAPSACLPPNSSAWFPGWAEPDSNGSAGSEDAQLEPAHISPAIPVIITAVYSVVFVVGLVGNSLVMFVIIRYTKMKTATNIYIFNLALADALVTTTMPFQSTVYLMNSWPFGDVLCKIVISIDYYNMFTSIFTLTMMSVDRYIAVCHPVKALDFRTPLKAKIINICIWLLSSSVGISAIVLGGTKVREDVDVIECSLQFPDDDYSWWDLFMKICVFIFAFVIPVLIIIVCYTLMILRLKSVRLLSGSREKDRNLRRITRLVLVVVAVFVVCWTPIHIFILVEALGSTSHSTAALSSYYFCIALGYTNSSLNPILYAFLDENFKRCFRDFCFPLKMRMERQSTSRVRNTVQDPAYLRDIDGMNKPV

Mu-type opioid receptor [22] = biological target: T11, Mu-type opioid receptor; assay: mu opioid receptor blockers – image-based, SAR follow-up (AID 2420); assay type: functional;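 also: compounds added before stimulation of receptor with agonist DAMGO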
[23] = biological target: T13, Kappa-type opioid receptor; assay: kappa opioid receptor activation potency – imaging, image-based, SAR follow-up (AID 2359); assay type: functional
[24] = biological target: T12, Delta-type opioid receptor; assay: delta opioid receptor blockers – image-based, SAR follow-up (AID 2357); assay type: functional
[25] = biological target: T13, Kappa-type opioid receptor; assay: kappa opioid receptor blockers, cell-based, luminescence, beta-arrestin, SAR follow-up (AID 2285); assay type: functional

O=P(O)(CP(=O)(c1ccccc1)c1ccccc1)c1ccccc1O
inconclusive: AC50 (Cytochrome P450 1A2) 28.2 µM | AC50 (Cytochrome P450 3A4) 17.8 µM | AC50 (Cytochrome P450 2C9) 0.1 µM | AC50 (Cytochrome P450 2D6)

O=C(/C=C/c1ccco1)NC(=S)Nc1ccc(O)c(-c2nc3ccccc3s2)c1
active: IC50 (SUMO-activating enzyme [1]) 12.1 µM | IC50 (SUMO-activating enzyme [2]) 18 µM

COc1ccc(C=C2C(=O)c3ccccc3C2=O)cc1O
inactive: IC50 [5] 12.7 µM
active: IC50 [3] 15 µM | IC50 [4] 15.6 µM | IC50 [6] 15.6 µM | AC50 [7] 1.7 µM | IC50 [8] 46.8 µM

CC(C)=CCc1c(O)ccc2c1OC(c1ccc(O)c(O)c1)CC2=O (stereo not drawn)
inactive: EC50 [10] > 99 µM | EC50 [11] > 99 µM
active: IC50 [3] 11.5 µM | IC50 [4] 1.97 µM | IC50 [5] 6.64 µM | IC50 [6] 88.8 µM | AC50 [9] 11.7 µM | AC50 [7] 3.68 µM

CCOc1ccc(-c2n[nH]c(C)c2-c2ccc(OC)cc2)c(O)c1
inactive: EC50 [12] 25.5 µM | EC50 (Cannabinoid receptor 1 [13]) > 32 µM | IC50 [14] > 32 µM | IC50 [16] 15.6 µM | EC50 (Cannabinoid receptor 2 [18]) 31.6 µM
active: IC50 (Cannabinoid receptor 1 [15]) 0.85 µM | IC50 (Cannabinoid receptor 2 [17]) 3.79 µM

CC(=O)Nc1ccc(S(=O)(=O)NCc2ccc(C(=O)NCCN(C)Cc3ccccc3)cc2)cc1
inactive: EC50 (Mu-type opioid receptor [19]) > 32 µM | EC50 [20] > 32 µM | IC50 [21] > 32 µM | IC50 (Mu-type opioid receptor [22]) > 32 µM | EC50 [23] > 32 µM | IC50 [24] > 32 µM | IC50 [25] > 10 µM

O=C(NC(NC(=S)Nc1ccc(Cl)c(Cl)c1)C(Cl)(Cl)Cl)OCc1ccccc1 (stereo not drawn)
inactive: EC50 (Mu-type opioid receptor [19]) > 32 µM | EC50 [20] > 32 µM | IC50 [21] 11.9 µM | IC50 (Mu-type opioid receptor [22]) > 32 µM | EC50 [23] > 32 µM | IC50 [24] > 32 µM | IC50 [25] > 10 µM

Cc1ccc(C(C)C(=O)N2CCC(n3nc(-c4ccccc4)oc3=O)CC2)cc1 (stereo not drawn)
inactive: EC50 [12] > 32 µM | EC50 (Cannabinoid receptor 1 [13]) > 32 µM | IC50 [14] > 32 µM | IC50 (Cannabinoid receptor 2 [17]) 22.9 µM | EC50 (Cannabinoid receptor 2 [18]) > 32 µM
active: IC50 (Cannabinoid receptor 1 [15]) 3.31 µM | IC50 [16] 7.6 µM
